Measurements published in patent publication US20200024278A1, “COMPOSITION COMPRISING ANTIBIOTIC COMPOUND AND AN HETEROCYCLIC COMPOUND AND THEIR USE IN PREVENTING OR TREATING BACTERIAL INFECTIONS” (MUTABILIS, priority 2016, published 2020).

Tests used:
Assay in all cases: MIC, broth microdilution (CLSI), substance alone or ATB combined with compound at 4 or 8 μg/mL
[1] = test system: KPN 6299; format: cell-based, K. pneumoniae; details: for MIC ATB combined with Example: Example @8 μg/ml
Outline: (§1)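 Potentiation format: antibiotic dilution series run with test compound held at 4 or 8 μg/mL, alongside compound-alone MICs. Broth microdilution per CLSI in ca-MHB, 16-20 h at 35° C.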

[2] = test system: KPN UFR42; format: cell-based, K. pneumoniae; details: for MIC ATB combined with Example / MIC ATB combined with Example compound: KPN UFR42; for MIC ATB combined with Example: Example @8 μg/ml; for MIC ATB combined with Example compound: compound @8 μg/ml
Outline: as §1

[3] = test system: KPN BAA-1898; format: cell-based, K. pneumoniae; details: for MIC ATB combined with Example: Example @8 μg/ml
Outline: as §1

[4] = test system: SPN 49619; format: cell-based, S. pneumoniae; details: for MIC ATB combined with Example / MIC ATB combined with Example compound: SPN 49619; for MIC ATB combined with Example: Example @8 μg/ml; for MIC ATB combined with Example compound: compound @8 μg/ml
Outline: as §1

[5] = test system: PAE 105250; format: cell-based, P. aeruginosa; details: PAE 105250; for MIC ATB combined with Example: Example @8 μg/ml; for MIC ATB combined with Example compound: compound @8 μg/ml
Outline: as §1

[6] = test system: PAE UFR48; format: cell-based, P. aeruginosa; details: PAE UFR48; for MIC ATB combined with Example: Example @8 μg/ml; for MIC ATB combined with Example compound: compound @8 μg/ml
Outline: as §1

[7] = test system: PAE UFR90; format: cell-based, P. aeruginosa; details: PAE UFR90; for MIC ATB combined with Example: Example @8 μg/ml; for MIC ATB combined with Example compound: compound @8 μg/ml
Outline: as §1

[8] = test system: SAU 29213; format: cell-based, S. aureus; details: for MIC ATB combined with Example / MIC ATB combined with Example compound: SAU 29213; for MIC ATB combined with Example: Example @8 μg/ml; for MIC ATB combined with Example compound: compound @8 μg/ml
Outline: as §1

[9] = test system: ECL P99; format: cell-based, E. cloacae; details: for MIC ATB combined with Example: Example @8 μg/ml
Outline: as §1

[10] = test system: ECO UFR39; format: cell-based, E. coli; details: for MIC ATB combined with Example / MIC ATB combined with Example compound: ECO UFR39; for MIC ATB combined with Example: Example @8 μg/ml; for MIC ATB combined with Example compound: compound @8 μg/ml
Outline: as §1

[11] = test system: ECO 190317; format: cell-based, E. coli; details: for MIC ATB combined with Example: Example @8 μg/ml
Outline: as §1

Structure (SMILES): O=C1N2CC(n3cccn3)=CC(C2)N1OC(F)(F)C(=O)[O-].[Li+] (stereo not shown) [Example 13, lithium difluoro-(7-oxo-3-pyrazol-1-yl-1,6-diaza-bicyclo[3.2.1]oct-3-en-6-yloxy)-acetate]
- MIC ATB combined with Example ([1]; ATB ATM): <=0.031 μg/mL
- MIC ATB combined with Example ([1]; ATB FEP): 0.063 µg/mL
- MIC ATB combined with Example ([1]; ATB FOS): 8 µg/mL
- MIC ATB combined with Example ([1]; ATB MEM): <=0.031 μg/mL
- MIC ATB combined with Example ([1]; ATB PIP): 0.5 µg/mL
- MIC ATB combined with Example compound ([1]; MIC of CIP, compound @8 μg/ml): 32 µg/mL
- MIC ATB combined with Example ([2]; ATB ATM): 0.125 µg/mL
- MIC ATB combined with Example ([2]; ATB FEP): <=0.031 μg/mL
- MIC ATB combined with Example ([2]; ATB FOS): 4 µg/mL
- MIC ATB combined with Example ([2]; ATB MEM): >32 µg/mL
- MIC ATB combined with Example ([2]; ATB PIP): >32 µg/mL
- MIC ([2]; Klebsiella pneumoniae): 16 µg/mL
- MIC ATB combined with Example compound ([2]; MIC of CIP): >32 µg/mL
- MIC ATB combined with Example compound ([2]; MIC of CPO): 32 µg/mL
- MIC ATB combined with Example ([3]; ATB ATM, KPN BAA-1898): 4 µg/mL
- MIC ATB combined with Example ([3]; ATB FEP, KPN BAA-1898): 0.25 µg/mL
- MIC ATB combined with Example ([3]; ATB FOS, KPN BAA-1898): 4 µg/mL
- MIC ATB combined with Example ([3]; ATB MEM, KPN BAA-1898): 0.25 µg/mL
- MIC ATB combined with Example ([3]; ATB PIP, KPN BAA-1898): 32 µg/mL
- MIC ([3]; Klebsiella pneumoniae, BAA1898): 16 µg/mL
- MIC ATB combined with Example compound ([3]; MIC of CIP, compound @8 μg/ml, KPN BAA-1898): 16 µg/mL
- MIC ATB combined with Example ([4]; ATB ATM): >32 µg/mL
- MIC ATB combined with Example ([4]; ATB FEP): 0.063 µg/mL
- MIC ATB combined with Example ([4]; ATB FOS): 32 µg/mL
- MIC ATB combined with Example ([4]; ATB MEM): <=0.031 μg/mL
- MIC ATB combined with Example ([4]; ATB PIP): 0.5 µg/mL
- MIC ATB combined with Example compound ([4]; MIC of CIP): 0.5 µg/mL
- MIC ATB combined with Example compound ([4]; MIC of CLI): 0.063 µg/mL
- MIC ATB combined with Example compound ([4]; MIC of CPO): <=0.031 μg/mL
- MIC ATB combined with Example compound ([4]; MIC of DAP): 0.5 µg/mL
- MIC ATB combined with Example compound ([4]; MIC of ERY): 0.063 µg/mL
- MIC ATB combined with Example compound ([4]; MIC of LZD): 1 µg/mL
- MIC ATB combined with Example compound ([4]; MIC of RIF): 0.0078 µg/mL
- MIC ATB combined with Example compound ([4]; MIC of SYN): 0.5 µg/mL
- MIC ATB combined with Example compound ([4]; MIC of VAN): 0.25 µg/mL
- MIC ([4]; Streptococcus pneumoniae): > 32 µg/mL
- MIC ATB combined with Example ([5]; ATB ATM): 8 µg/mL
- MIC ATB combined with Example ([5]; ATB FEP): 8 µg/mL
- MIC ATB combined with Example ([5]; ATB FOS): >128 µg/mL
- MIC ATB combined with Example ([5]; ATB MEM): 2 µg/mL
- MIC ATB combined with Example ([5]; ATB PIP): 32 µg/mL
- MIC ATB combined with Example compound ([5]; MIC of CIP): 0.063 µg/mL
- MIC ATB combined with Example compound ([5]; MIC of CPO): 16 µg/mL
- MIC ATB combined with Example ([6]; ATB ATM): 8 µg/mL
- MIC ATB combined with Example ([6]; ATB FEP): 32 µg/mL
- MIC ATB combined with Example ([6]; ATB FOS): 16 µg/mL
- MIC ATB combined with Example ([6]; ATB MEM): 0.5 µg/mL
- MIC ATB combined with Example ([6]; ATB PIP): 32 µg/mL
- MIC ATB combined with Example compound ([6]; MIC of CIP): 4 µg/mL
- MIC ATB combined with Example compound ([6]; MIC of CPO): >32 µg/mL
- MIC ATB combined with Example ([7]; ATB ATM): 16 µg/mL
- MIC ATB combined with Example ([7]; ATB FEP): 8 µg/mL
- MIC ATB combined with Example ([7]; ATB FOS): 8 µg/mL
- MIC ATB combined with Example ([7]; ATB MEM): 2 µg/mL
- MIC ATB combined with Example ([7]; ATB PIP): >32 µg/mL
- MIC ATB combined with Example compound ([7]; MIC of CIP): 1 µg/mL
- MIC ATB combined with Example compound ([7]; MIC of CPO): 16 µg/mL
- MIC ATB combined with Example ([8]; ATB ATM): >32 µg/mL
- MIC ATB combined with Example ([8]; ATB FEP): 2 µg/mL
- MIC ATB combined with Example ([8]; ATB FOS): 0.5 µg/mL
- MIC ATB combined with Example ([8]; ATB MEM): <=0.031 μg/mL
- MIC ATB combined with Example ([8]; ATB PIP): 1 µg/mL
- MIC ATB combined with Example compound ([8]; MIC of CIP): 0.25 µg/mL
- MIC ATB combined with Example compound ([8]; MIC of CLI): 0.063 µg/mL
- MIC ATB combined with Example compound ([8]; MIC of CPO): 0.5 µg/mL
- MIC ATB combined with Example compound ([8]; MIC of DAP): 1 µg/mL
- MIC ATB combined with Example compound ([8]; MIC of ERY): 0.125 µg/mL
- MIC ATB combined with Example compound ([8]; MIC of LZD): 1 µg/mL
- MIC ATB combined with Example compound ([8]; MIC of RIF): 0.0078 µg/mL
- MIC ATB combined with Example compound ([8]; MIC of SYN): 0.25 µg/mL
- MIC ATB combined with Example compound ([8]; MIC of VAN): 1 µg/mL
- MIC ([8]; Staphylococcus aureus, MSSA): 32 µg/mL
- MIC ATB combined with Example ([9]; ATB ATM, ECL P99): 2 µg/mL
- MIC ATB combined with Example ([9]; ATB FEP, ECL P99): <=0.031 μg/mL
- MIC ATB combined with Example ([9]; ATB FOS, ECL P99): 32 µg/mL
- MIC ATB combined with Example ([9]; ATB MEM, ECL P99): <=0.031 μg/mL
- MIC ATB combined with Example ([9]; ATB PIP, ECL P99): 4 µg/mL
- MIC ([9]; Enterobacter cloacae): 16 µg/mL
- MIC ATB combined with Example compound ([9]; MIC of CIP, compound @8 μg/ml, ECL P99): <=0.031 μg/mL
- MIC ATB combined with Example ([10]; ATB ATM): <0.031 µg/mL
- MIC ATB combined with Example ([10]; ATB FEP): <0.031 µg/mL
- MIC ATB combined with Example ([10]; ATB FOS): <0.125 µg/mL
- MIC ATB combined with Example ([10]; ATB MEM): <=0.031 μg/mL
- MIC ATB combined with Example ([10]; ATB PIP): <0.031 µg/mL
- MIC ([10]; Escherichia coli): 8 µg/mL
- MIC ATB combined with Example compound ([10]; MIC of CIP): <0.031 µg/mL
- MIC ATB combined with Example compound ([10]; MIC of CPO): <0.031 µg/mL
- MIC ATB combined with Example ([11]; ATB ATM, ECO 190317): <0.031 µg/mL
- MIC ATB combined with Example ([11]; ATB FEP, ECO 190317): <0.031 µg/mL
- MIC ATB combined with Example ([11]; ATB FOS, ECO 190317): <0.125 µg/mL
- MIC ATB combined with Example ([11]; ATB MEM, ECO 190317): <0.031 µg/mL
- MIC ATB combined with Example ([11]; ATB PIP, ECO 190317): <0.031 µg/mL
- MIC ([11]; Escherichia coli): 4 µg/mL
- MIC ATB combined with Example compound ([11]; MIC of CIP, compound @8 μg/ml, ECO 190317): <0.031 µg/mL
